Tested on: IL-1 alpha biosynthesis in human skin cells (HaCaT keratinocytes)
Experiment: Anti-interleukin-1alpha assay: IL-1 alpha biosynthesis in A23187-stimulated HaCaT keratinocytes, ELISA of cell lysate
Type: cell-based
Details: vs stimulated control (0.2 μM A23187, 6 h)
Experimental: Since interleukin-1 alpha (IL-1 alpha) is a central inflammatory mediator in the skin, the inhibiting effect of the blackberry leaf extract on IL-1 alpha biosynthesis in human skin cells (HaCaT keratinocytes) was investigated. The cells are disseminated in a 96-well microtitre plate (MTP) on the previous day. On the day of the experiment, the test substance solutions are applied in medium in three different concentrations as a triple determination and incubated for 60 min at 37° C. and 5% CO2. Cellular IL-1 alpha biosynthesis is then stimulated by the addition of 0.2 μM A23187 calcium ionophore and the solutions are incubated for a further 6 h. The supernatant is drawn off and the cells undergo lysis through the addition of 1% Triton X 100. The IL-1 alpha in the cell lysate is quantified in an ELISA (human IL-1 alpha ELISA kit, EH2IL1A, Endogen).
The results set out below were obtained from two independent experiments. IL-1 alpha inhibition was calculated in comparison to the stimulated control.

With `C[C@@H]1C[C@H]2[C@@H]3CCC4=CC(=O)C=C[C@]4(C)[C@@]3(F)[C@@H](O)C[C@]2(C)[C@@]1(O)C(=O)CO` [Dexamethasone] the inhibition at 0.01 µM (0.01 μM dexamethasone) was 28.8%, the inhibition at 0.1 µM (0.1 μM dexamethasone) was 37.7% and the inhibition at 1 µM (1 μM dexamethasone) was 44.7%.

Reference: patent US8354128B2, “Blackberry leaf extract as an active ingredient against skin irritations and inflammations” (Symrise AG, priority 2005, dated 2013)
